Test results published in US20110190249A1, “THERAPEUTIC METHODS AND USES OF SAPOGENINS AND THEIR DERIVATIVES” (PHYTOPHARM PLC, priority 2002, published 2011).

What was measured:
m3 receptor = m3 receptor density in CHO-β2/m3 co-transfected cell line; format: cell-based; settings: day 5
From the text: (§1) The effects of epismilagenin cathylate, sarsasapogenin cathylate, episarsasapogenin cathylate, episarsasapogenin succinate, epismilagenin acetate and sarsasapogenin on the expression of muscarinic acetylcholine receptor (m) in CHO cells or β2 and m3 receptors in CHO cells transfected with either a vector for the m receptor or co-transfected with the vector for β2 and m3 receptors were investigated.
(§2) The results are illustrated in Table 1 below and in FIG. 1 of the drawings. Over the culturing period of CHO cells transfected with a vector for the m receptor, treatment with epismilagenin cathylate, sarsasapogenin cathylate, episarsasapogenin cathylate, episarsasapogenin succinate and sarsasapogenin each prevents the decrease in m receptor number.

β2 adrenoceptor = β2 adrenoceptor density in CHO-β2/m3 co-transfected cell line; format: cell-based; settings: day 5
From the text: as §1, §2

## CC(=O)OC1CCC2(C)C(CCC3C2CCC2(C)C3CC3OC4(CCC(C)CO4)C(C)C32)C1 (centres unmarked) [epismilagenin acetate]
m3 receptor
  density of m3 receptors: did not significantly alter
β2 adrenoceptor
  decrease in β2 adrenoceptors (density): significantly prevented the decrease
